Results from the NIST ThermoML archive (doi:10.1016/j.fluid.2014.04.038).
Where “and” joins values, the source holds several entries; their conditions need not be identical. Identical values can stand only once. Numbers after ± are expanded uncertainties.

Conditions: Hot wire method

CCF [fluoroethane]
Conditions	thermal conductivity [W/m/K]
355.41 K, 2277.9 kPa, Gas	0.02422 ± 0.0015
355.59 K, 2007.1 kPa, Gas	0.02432 ± 0.0015
355.72 K, 1531.1 kPa, Gas	0.02295 ± 0.0014
355.79 K, 2586.5 kPa, Gas	0.02513 ± 0.0015
355.91 K, 2277.9 kPa, Gas	0.02436 ± 0.0015
355.95 K, 2934.5 kPa, Gas	0.0265 ± 0.0016
355.99 K, 1034.8 kPa, Gas	0.02302 ± 0.0014
356.06 K, 2007.1 kPa, Gas	0.02406 ± 0.0015
356.17 K, 611.2 kPa, Gas	0.02275 ± 0.0014
356.26 K, 2586.5 kPa, Gas	0.02498 ± 0.0015
356.27 K, 1531.1 kPa, Gas	0.02331 ± 0.0014
356.32 K, 266.7 kPa, Gas	0.02267 ± 0.0014
356.52 K, 2277.9 kPa, Gas	0.02412 ± 0.0015
356.55 K, 1034.8 kPa, Gas	0.0229 ± 0.0014
356.73 K, 2007.1 kPa, Gas	0.02363 ± 0.0014
356.82 K, 611.2 kPa, Gas	0.02305 ± 0.0014
357.02 K, 266.7 kPa, Gas	0.02276 ± 0.0014
357.06 K, 1531.1 kPa, Gas	0.02299 ± 0.0014
357.39 K, 1034.8 kPa, Gas	0.02287 ± 0.0014
357.69 K, 611.2 kPa, Gas	0.02264 ± 0.0014
357.98 K, 266.7 kPa, Gas	0.02298 ± 0.0014
364.77 K, 3438 kPa, Gas	0.02941 ± 0.0018
364.87 K, 3960.3 kPa, Gas	0.03259 ± 0.002
365.05 K, 2942.4 kPa, Gas	0.02781 ± 0.0017
365.11 K, 3438 kPa, Gas	0.02942 ± 0.0018
365.43 K, 2942.4 kPa, Gas	0.02721 ± 0.0017
365.62 K, 2506.8 kPa, Gas	0.0257 ± 0.0016
365.62 K, 3718.5 kPa, Gas	0.03133 ± 0.0019
365.65 K, 3438 kPa, Gas	0.02965 ± 0.0018
365.98 K, 2942.4 kPa, Gas	0.027 ± 0.0017
365.99 K, 2001.8 kPa, Gas	0.02478 ± 0.0015
366.21 K, 2506.8 kPa, Gas	0.02572 ± 0.0016
366.21 K, 3718.5 kPa, Gas	0.03142 ± 0.0019
366.29 K, 533.7 kPa, Gas	0.02342 ± 0.0014
366.42 K, 1515.5 kPa, Gas	0.02467 ± 0.0015
366.63 K, 1029 kPa, Gas	0.0243 ± 0.0015
366.67 K, 2001.8 kPa, Gas	0.02473 ± 0.0015
366.76 K, 2506.8 kPa, Gas	0.02558 ± 0.0016
367.1 K, 1515.5 kPa, Gas	0.02393 ± 0.0015
367.32 K, 2001.8 kPa, Gas	0.02511 ± 0.0015
367.38 K, 533.7 kPa, Gas	0.0242 ± 0.0015
367.49 K, 1029 kPa, Gas	0.02463 ± 0.0015
368.3 K, 533.7 kPa, Gas	0.02352 ± 0.0014
368.41 K, 1515.5 kPa, Gas	0.02402 ± 0.0015
368.9 K, 1029 kPa, Gas	0.02415 ± 0.0015
373.83 K, 4470.3 kPa, Gas	0.03726 ± 0.0023
373.99 K, 4470.3 kPa, Gas	0.03714 ± 0.0023
374.47 K, 4470.3 kPa, Gas	0.03687 ± 0.0023
374.48 K, 2938.6 kPa, Gas	0.02793 ± 0.0017
374.62 K, 2478.9 kPa, Gas	0.02638 ± 0.0016
374.67 K, 3543.9 kPa, Gas	0.03045 ± 0.0019
374.7 K, 2119.8 kPa, Gas	0.02585 ± 0.0016
374.85 K, 1564.8 kPa, Gas	0.02515 ± 0.0015
375.05 K, 2938.6 kPa, Gas	0.02813 ± 0.0017
375.25 K, 2119.8 kPa, Gas	0.02574 ± 0.0016
375.37 K, 364.6 kPa, Gas	0.02485 ± 0.0015
375.68 K, 1564.8 kPa, Gas	0.0258 ± 0.0016
375.8 K, 2478.9 kPa, Gas	0.02745 ± 0.0017
375.94 K, 2119.8 kPa, Gas	0.02613 ± 0.0016
376.1 K, 887.8 kPa, Gas	0.02494 ± 0.0015
376.18 K, 1564.8 kPa, Gas	0.02555 ± 0.0016
376.41 K, 364.6 kPa, Gas	0.02448 ± 0.0015
376.83 K, 887.8 kPa, Gas	0.02525 ± 0.0015
377.08 K, 364.6 kPa, Gas	0.02454 ± 0.0015
377.36 K, 5247.3 kPa, Fluid (supercritical or subcritical phases)	0.07905 ± 0.0048
377.63 K, 5247.3 kPa, Fluid (supercritical or subcritical phases)	0.08228 ± 0.005
377.73 K, 5247.3 kPa, Fluid (supercritical or subcritical phases)	0.08638 ± 0.0053
380.51 K, 5230.1 kPa, Fluid (supercritical or subcritical phases)	0.05046 ± 0.0032

Liquid
Conditions	thermal conductivity
355.7 K	0.08043 ± 0.0032 W/m/K and 0.08031 ± 0.0032 W/m/K
355.71 K	0.08044 ± 0.0032 W/m/K
364.69 K	0.07657 ± 0.0031 W/m/K
364.71 K	0.07768 ± 0.0031 W/m/K
364.75 K	0.07676 ± 0.0031 W/m/K
365.06 K	0.07678 ± 0.0031 W/m/K
365.08 K	0.07679 ± 0.0031 W/m/K and 0.07656 ± 0.0031 W/m/K
365.47 K	0.07603 ± 0.0031 W/m/K
365.52 K	0.07616 ± 0.0031 W/m/K
365.53 K	0.07615 ± 0.0031 W/m/K
374.47 K	0.07323 ± 0.0029 W/m/K
374.48 K	0.07368 ± 0.003 W/m/K and 0.07356 ± 0.003 W/m/K
374.81 K	0.07343 ± 0.003 W/m/K and 0.07344 ± 0.003 W/m/K
374.82 K	0.07343 ± 0.003 W/m/K
375.2 K	0.07321 ± 0.0029 W/m/K
375.21 K	0.07381 ± 0.003 W/m/K and 0.07357 ± 0.003 W/m/K
